Tested on: isomerase (recovery of 11-cis-retinal after bleaching)
Test: In vivo murine isomerase assay (Table 3)
Settings: Mus musculus, po, mice
Method: The capability of compounds described herein to inhibit isomerase was determined by an in vivo murine isomerase assay. […] The recovery of 11-cis-retinal after bleaching can be used to estimate the activity of isomerase in vivo. Delayed recovery, as represented by lower 11-cis-retinal oxime levels, indicates inhibition of isomerization reaction.
Mice were gavaged with the test compound. […] The mice were allowed to recover 2 hours in the dark. The animals were then sacrificed by carbon dioxide inhalation. Retinoids were extracted from the eye and the regeneration of 11-cis-retinal was assessed at various time intervals.
After the mice were sacrificed, the eyes were immediately removed and placed in liquid nitrogen for storage.
The eyes were placed in 500 μL of bis-tris propane buffer (10 mM, pH˜7.3) and 20 μL of 0.8M hydroxile amine (pH˜7.3). The eyes were cut up into small pieces with small iris scissors and then thoroughly homogenized at 30000 rpm with a mechanical homogenizer (Polytron PT 1300 D) in the tube until no visible tissue remained. 500 μL of methanol and 500 μL of heptane were added to each tube. The tubes were attached to a vortexer so that the contents were mixed thoroughly for 15 minutes in room temperature. The organic phase was separated from the aqueous phase by centrifugation for 10 min at 13K rpm, 4° C. 240 μL of the solution from the top layer (organic phase) was removed and transferred to clean 300 μl glass inserts in HPLC vials using glass pipette and the vials were crimped shut tightly.
The samples were analyzed on an Agilent 1100 HPLC system with normal phase column: SILICA (Beckman Coutlier, dp 5 μm, 4.6 mM×250 mM). […] Loading volume for each sample was 100 μl; detection wavelength was 360 nm. The area under the curve for 11-cis retinal oxime was calculated by Agilent Chemstation software and was recorded manually. Data processing was performed using Prizm software.
Positive control mice (no compound administered) were sacrificed fully dark-adapted and the eye retinoids analyzed. Light (bleached) control mice (no compound administered) were sacrificed and retinoids isolated and analyzed immediately after light treatment.
A time course study was performed to determine the isomerase inhibitory activity of the test compound. […] The animals were then “photo-bleached” (5000 Lux white light for 10 minutes) at 2, 4, 8, 16 and 24 hours after dosing, and returned to darkness to allow recovery of the 11-cis-retinal content of the eyes. Mice were sacrificed 2 hours after bleaching, eyes were enucleated, and retinoid content is analyzed by HPLC.
Recovery control mice (vehicle-only treated) were light-treated and left to recover for 2 hours in the dark before sacrifice and analysis. Light control mice (vehicle only treated) were sacrificed for analysis immediately after photo-bleaching.
An in vivo dose response isomerase inhibition study was performed with test compound. […] Recovery and retinoid analysis were performed as described above. Dark control mice were vehicle-only treated, sacrificed fully dark adapted without light treatment, and analyzed. Recovery control mice and light control mice were included in the study as per the initial phase.

Compound	inhibition at 1 mg/kg (2 h)	inhibition at 1 mg/kg (4 h)	further results
NCC[C@@H](O)c1cccc(OCC2CCCOC2)c1 (mixture of isomers) [Example 3, (1R)-3-Amino-1-(3-((tetrahydro-2H-pyran-3-yl)methoxy)phenyl)propan-1-ol]	98.7%	94.2%	inhibition at 0.01 mg/kg (2 h, Dose 0.01 mg/kg): 1.2%; inhibition at 0.03 mg/kg (2 h, Dose 0.03 mg/kg): 2.7%; inhibition at 0.1 mg/kg (2 h, Dose 0.1 mg/kg): 4.2%; inhibition at 0.3 mg/kg (2 h): 75.2%; inhibition at 3 mg/kg (2 h, Dose 3 mg/kg): 102%; inhibition at 0.3 mg/kg (4 h): 59.7%; inhibition at 0.3 mg/kg (8 h): 14.8%; inhibition at 0.3 mg/kg (16 h): 1.6%; inhibition at 0.3 mg/kg (24 h): 4.1%
NCC[C@@H](O)c1cccc(OCC2CCCSC2)c1 (mixture of isomers) [Example 7, (1R)-3-Amino-1-(3-((tetrahydro-2H-thiopyran-3-yl)methoxy)phenyl)propan-1-ol]	60.5%	68%	inhibition at 1 mg/kg (8 h): 40.3%
NCC[C@@H](O)c1cccc(OCC2CCCS(=O)(=O)C2)c1 (mixture of isomers) [Example 10, 3-((3-((R)-3-Amino-1-hydroxypropyl)phenoxy)methyl)tetrahydro-2H-thiopyran 1,1-dioxide]	–	-7.6%	–
NCC[C@@H](O)c1cccc(OCC2Cc3ccccc3O2)c1 (mixture of isomers) [Example 13, (1R)-3-Amino-1-(3-((2,3-dihydrobenzofuran-2-yl)methoxy)phenyl)propan-1-ol]	62.1%	–	–
NCC[C@@H](O)c1cccc(OCC2CCCO2)c1 (mixture of isomers) [Example 14, (1R)-3-Amino-1-(3-((tetrahydrofuran-2-yl)methoxy)phenyl)propan-1-ol]	79.2%	59.8%	inhibition at 1 mg/kg (8 h): 0.8%
NCC[C@@H](O)c1cccc(OCC2COc3ccccc3C2)c1 (mixture of isomers) [Example 19, (1R)-3-Amino-1-(3-(chroman-3-ylmethoxy)phenyl)propan-1-ol]	–	91.4%	inhibition at 0.3 mg/kg (2 h): 49.4%; inhibition at 0.3 mg/kg (4 h): 40%; inhibition at 0.3 mg/kg (8 h): 15.5%
NCCC(O)c1cccc(OCC2CCOCC2)c1 (centres unmarked) [Example 2, 3-Amino-1-(3-((tetrahydro-2H-pyran-4-yl)methoxy)phenyl)propan-1-ol]	–	89.9%	–
NCC[C@@H](O)c1cccc(OCc2ccncc2)c1 [Example 4, (R)-3-amino-1-(3-(pyridin-4-ylmethoxy)phenyl)propan-1-ol]	–	-8.7%	–
NCC[C@@H](O)c1cccc(OCc2cccnc2)c1 [Example 5, (R)-3-Amino-1-(3-(pyridin-3-ylmethoxy)phenyl)propan-1-ol]	–	3.1%	–
NCC[C@@H](O)c1cccc(OCC2CCSCC2)c1 [Example 8, (R)-3-Amino-1-(3-((tetrahydro-2H-thiopyran-4-yl)methoxy)phenyl)propan-1-ol]	–	33.2%	–
NCC[C@@H](O)c1cccc(OCC2CCS(=O)(=O)CC2)c1 [Example 9, (R)-4-((3-(3-Amino-1-hydroxypropyl)phenoxy)methyl)tetrahydro-2H-thiopyran 1,1-dioxide]	–	-8.2%	–
CC(=O)N1CCC(COc2cccc([C@H](O)CCN)c2)CC1 [Example 11, (R)-1-(4-((3-(3-Amino-1-hydroxypropyl)phenoxy)methyl)piperidin-1-yl)ethanone]	-4.7%	2.6%	inhibition at 1 mg/kg (8 h): -3.8%
Cc1cccc(COc2cccc([C@H](O)CCN)c2)n1 [Example 12, (R)-3-Amino-1-(3-((6-methylpyridin-2-yl)methoxy)phenyl)propan-1-ol]	–	11.2%	–

— patent US20160151369A1, “SUBSTITUTED 3-PHENYLPROPYLAMINE DERIVATIVES FOR THE TREATMENT OF OPHTHALMIC DISEASES AND DISORDERS” (ACUCELA INC., priority 2013, published 2016)
